Test results published in patent US20260355184A1, “SMALL MOLECULE DEGRADERS OF HIV-1 TAT PROTEIN” (priority 2022, published 2026).
Like-named read-outs stand apart in the source and are kept apart here.

Columns and labels:
HIV NL4.3 strain = experiment: HIV infectivity assay, reporter cell line HeLa-CD4-LTR-LacZ, β-Gal activity (Tat protein inhibition); assay type: cell-based, HIV-1 (NL4.3); settings: for IC50: Human immunodeficiency virus 1, read-out: Infectivity IC50, HeLa-CD4-LTR-LacZ
Description: (§1) Next, the activity of these leads against HIV infection was evaluated using the reporter cell line HeLa-CD4-LTR-LacZ, which stably expresses the β-galactosidase (β-Gal) gene under the control of the HIV 5′ LTR. The HIV NL4.3 strain was used for these studies and β-Gal activity was measured 72 hrs post infection (FIG. 3A). Cytotoxicity assays using Cell-Titer-Glo were performed in parallel to assess cell viability (FIG. 3A). […] Their anti-HIV activity was further assessed in acute replication of Jurkat T cells with the NL4.3 strain (FIG. 3A). […] These OM10.1 cells contain a single integrated wild-type provirus, while ACH-2 cells contain a single integrated provirus with a TAR mutation C37T, defective Tat-TAR feedback loop (FIG. 3B).

[1] = Cytotoxicity assay, Cell-Titer-Glo, HeLa-CD4-LTR-LacZ; settings: human, hela-cd4-ltr-lacz cells, Infectivity CC50, HeLa-CD4-LTR-LacZ
Description: as §1

[2] = HeLa-CD4 cell NL4.3 infection assays

Row | SMILES | IC50 (HIV NL4.3 strain; analogs of TT-44881 (Table 1)) | CC50 ([1]; analogs of TT-44881 (Table 1)) | IC50 (HIV NL4.3 strain; analogs of TT-44863 (Table 2)) | CC50 ([1]; analogs of TT-44863 (Table 2)) | also measured
1 | Cc1cc(C(=O)NCCCN2CCCC2=O)nn1-c1ccccc1 [GB-14] | > 100 µM | > 100 µM |  |  | 
2 | Cc1cc(C(=O)N(C)CCCN2CCCC2=O)nn1-c1ccccc1 [GB-15] | > 100 µM | > 100 µM |  |  | 
3 | CCN(CCCN1CCCC1=O)C(=O)c1cc(C)n(-c2ccccc2)n1 [GB-16] | > 100 µM | > 100 µM |  |  | 
4 | CCCN(CCCN1CCCC1=O)C(=O)c1cc(C)n(-c2ccccc2)n1 [GB-17] | > 100 µM | > 100 µM |  |  | 
5 | COc1ccc(C(F)(F)F)cc1NC(=O)Cn1cc(C(F)(F)F)cc(Cl)c1=O [TT-46600] |  |  | 1 to 10 µM | > 100 µM | increase of potency vs TT-44863 (HIV NL4.3 strain; [2]): ~ 5 fold
6 | COc1ccc(Cl)cc1NC(=O)Cn1cc(C(F)(F)F)cc(Cl)c1=O [TT-46603] |  |  | 20 to 30 µM | 50 to 100 µM | decrease of potency vs TT-44863 (HIV NL4.3 strain; [2]): ~ 5 fold
7 | CC(NC(=O)C(c1ccccc1)c1ccccc1)c1ccc(-n2ccnc2)cc1 (centres unmarked) [Z27307031] |  |  |  |  | IC50 (HIV NL4.3 strain; analogs of TT-44856 (Table 3)): 1 to 20 µM; CC50 ([1]; analogs of TT-44856 (Table 3)): > 100 µM
8 | Cc1ccc(CC(=O)NCCCn2cnc3ccccc32)cc1 [Z102452176] |  |  |  |  | IC50 (HIV NL4.3 strain; analogs of TT-44856 (Table 3)): 10 to 30 µM; CC50 ([1]; analogs of TT-44856 (Table 3)): > 100 µM
9 | COc1ccc(NC(=O)Cn2cc(C(F)(F)F)cc(Cl)c2=O)cc1C(F)(F)F [compound 44] |  |  | > 100 µM | > 100 µM | 
10 | COc1ccc(OC(F)(F)F)cc1NC(=O)Cn1cc(C(F)(F)F)cc(Cl)c1=O [compound 45] |  |  | 1 to 10 µM | > 100 µM | 
11 | CC(C)(C)OC(=O)COCCOCCOc1ccc(C(F)(F)F)cc1NC(=O)Cn1cc(C(F)(F)F)cc(Cl)c1=O [compound 47] |  |  | 50 to 100 µM | > 100 µM | 
12 | O=C(O)COCCOCCOc1ccc(C(F)(F)F)cc1NC(=O)Cn1cc(C(F)(F)F)cc(Cl)c1=O [compound 48] |  |  | > 100 µM | > 100 µM | 
13 | COc1ccc(C(F)(F)F)cc1NC(=O)C(C)n1cc(C(F)(F)F)cc(Cl)c1=O (centres unmarked) [compound 49] |  |  | 1 to 20 µM | > 100 µM | 
14 | O=C(Cn1cc(C(F)(F)F)cc(Cl)c1=O)Nc1cc(C(F)(F)F)ccc1OCCN1CCOCC1 [compound 51] |  |  | 1 to 10 µM | 50 to 100 µM | 
15 | CN1CCN(CCOc2ccc(C(F)(F)F)cc2NC(=O)Cn2cc(C(F)(F)F)cc(Cl)c2=O)CC1 [compound 52] |  |  | 10 to 20 µM | 25 to 50 µM | 
16 | CCOCCOCCOc1ccc(C(F)(F)F)cc1NC(=O)Cn1cc(C(F)(F)F)cc(Cl)c1=O [compound 55] |  |  | 1 to 20 µM | > 100 µM | 
17 | COc1ccc(C(F)(F)F)cc1NC(=O)C(CCO)n1cc(C(F)(F)F)cc(Cl)c1=O (centres unmarked) [compound 60] |  |  | 10 to 50 µM | 10 to 30 µM | 
18 | COc1cc(NC(=O)Cn2cc(C(F)(F)F)cc(Cl)c2=O)cc(C(F)(F)F)c1 [compound 61] |  |  | > 100 µM | > 100 µM | 
19 | O=C(O)c1ccc(CNC(=O)c2cn(-c3ccccc3)c3ccccc23)cc1 [compound 41784] | > 100 µM | > 100 µM |  |  | 
20 | CS(=O)(=O)N1CCN(C(=O)c2cn(-c3ccccc3)c3ccccc23)CC1 [compound 41798] | > 100 µM | > 100 µM |  |  | 
21 | NS(=O)(=O)c1ccc(CCNC(=O)c2cn(-c3ccccc3)c3ccccc23)cc1 [compound 41799] | 5 to 20 µM | > 100 µM |  |  | 
22 | N#Cc1ccc(NC(=O)c2cn(-c3ccccc3)c3ccccc23)cc1 [compound 41905] | 1 to 10 µM | 1 to 10 µM |  |  | 
23 | O=C(NCc1ccccc1N1CCCCC1)c1cn(-c2ccccc2)c2ccccc12 [compound 41924] | > 100 µM | > 100 µM |  |  | 
24 | CC(=O)c1cccc(CNC(=O)c2cn(-c3ccccc3)c3ccccc23)c1 [compound 41967] | > 100 µM | > 100 µM |  |  | 
25 | N#Cc1ccc(CNC(=O)c2cn(-c3ccccc3)c3ccccc23)cc1 [compound 41969] | 12.4 µM | > 100 µM |  |  | 
26 | O=C(NCc1ccc(Cl)cn1)c1cn(-c2ccc(F)cc2)c2ccccc12 [compound 41980] | > 100 µM | 35.6 µM |  |  | 
27 | O=C(O)c1ccc(C2(NC(=O)c3cn(-c4ccc(F)cc4)c4ccccc34)CC2)cc1 [compound 42097] | > 100 µM | > 100 µM |  |  | 
